This note sets out measurements from the supplement of paper PMC10307832.

Experiment in all cases: relative viability (nuclei count vs DMSO), 5 days (fraction); higher = more cells survive
Compound in the experiment “Irinotecan + Palbociclib”: CCc1c2c(nc3ccc(OC(=O)N4CCC(N5CCCCC5)CC4)cc13)-c1cc3c(c(=O)n1C2)COC(=O)[C@]3(O)CC [Irinotecan] + CC(=O)c1c(C)c2cnc(Nc3ccc(N4CCNCC4)cn3)nc2n(C2CCCC2)c1=O [Palbociclib] (partner 0.5 µM)
The essentials: (§1)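 Values are medians from duplicate plates. Each reflects relative viability, defined as the nuclei count of treated wells over that of vehicle wells. Lung cancer cell lines in 1536-well plates were pin-tool dosed one day after seeding with one drug alone or with a fixed anchor-drug dose plus five library-drug doses (not always all listed) in √10 steps, then fixed, stained and imaged at 4× after 5 days.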

Compound in the experiment “MK-8033 + Pemetrexed”: Cn1cc(-c2cnc3ccc4ccc(CS(=O)(=O)NCc5ccccn5)cc4c(=O)c3c2)cn1 [MK-8033] + Nc1nc2[nH]cc(CCc3ccc(C(=O)N[C@@H](CCC(=O)O)C(=O)O)cc3)c2c(=O)[nH]1 [Pemetrexed] (partner 0.2 µM)
The essentials: as §1

Compound in the experiment “Irinotecan + Luminespib”: CCc1c2c(nc3ccc(OC(=O)N4CCC(N5CCCCC5)CC4)cc13)-c1cc3c(c(=O)n1C2)COC(=O)[C@]3(O)CC [Irinotecan] + CCNC(=O)c1noc(-c2cc(C(C)C)c(O)cc2O)c1-c1ccc(CN2CCOCC2)cc1 [Luminespib] (partner 0.01 µM)
The essentials:
as §1

Compound in the experiment “Irinotecan + Pemetrexed”: CCc1c2c(nc3ccc(OC(=O)N4CCC(N5CCCCC5)CC4)cc13)-c1cc3c(c(=O)n1C2)COC(=O)[C@]3(O)CC [Irinotecan] + Nc1nc2[nH]cc(CCc3ccc(C(=O)N[C@@H](CCC(=O)O)C(=O)O)cc3)c2c(=O)[nH]1 [Pemetrexed] (partner 0.2 µM)
The procedure, abridged:
as §1

For UMC-11, the relative viability in the experiment with Irinotecan + Palbociclib (first compound 0.6325 µM) was 0.343; with Irinotecan + Palbociclib (first compound 2 µM) it was 0.336; with Irinotecan + Palbociclib (first compound 6.325 µM), 0.267; with Irinotecan + Palbociclib (first compound 20 µM), 0.186; with MK-8033 + Pemetrexed (first compound 0.02 µM), 0.801; with MK-8033 + Pemetrexed (first compound 0.06325 µM) it was 0.75. Besides, the relative viability is 0.66 with MK-8033 + Pemetrexed (first compound 0.2 µM); 0.815 with MK-8033 + Pemetrexed (first compound 0.6325 µM); 0.683 in the experiment with MK-8033 + Pemetrexed (first compound 2 µM); 0.569 with Irinotecan + Luminespib (first compound 0.6325 µM); 0.491 with Irinotecan + Luminespib (first compound 2 µM); 0.383 with Irinotecan + Luminespib (first compound 6.325 µM). Also, the relative viability with Irinotecan + Luminespib (first compound 20 µM) turned out to be 0.192; with Irinotecan + Pemetrexed (first compound 0.6325 µM), 0.46; in the experiment with Irinotecan + Pemetrexed (first compound 2 µM), 0.436; with Irinotecan + Pemetrexed (first compound 6.325 µM), 0.288; with Irinotecan + Pemetrexed (first compound 20 µM), 0.228.
